Results published in the NIST ThermoML archive (doi:10.1021/je800635g).

Assay: xn = mol fraction of the nth substance listed
Conditions: Liquid, Falling or rolling sphere viscometry

Cc1ccc(C)cc1 [1,4-dimethylbenzene] + CC(=O)O
viscosity [mPa·s]
Conditions	x1 = 0.1001	x1 = 0.1997	x1 = 0.3001	x1 = 0.3997	x1 = 0.5	x1 = 0.6002	x1 = 0.6988	x1 = 0.7994	x1 = 0.8994
313.15 K, 100 kPa	0.725	0.63	0.571	0.522	0.52	0.514	0.508	0.505	0.499
313.15 K, 800 kPa	0.731	0.635	0.576	0.527	0.524	0.519	0.512	0.509	0.503
313.15 K, 1600 kPa	0.737	0.641	0.583	0.532	0.53	0.524	0.517	0.514	0.508
313.15 K, 2400 kPa	0.743	0.647	0.585	0.537	0.535	0.529	0.522	0.519	0.513
313.15 K, 3200 kPa	0.749	0.653	0.591	0.543	0.541	0.534	0.527	0.525	0.518
333.15 K, 100 kPa	0.587	0.508	0.459	0.424	0.419	0.418	0.415	0.412	0.407
333.15 K, 800 kPa	0.592	0.514	0.464	0.429	0.424	0.423	0.419	0.416	0.411
333.15 K, 1600 kPa	0.598	0.52	0.47	0.434	0.429	0.428	0.424	0.422	0.416
333.15 K, 2400 kPa	0.605	0.526	0.476	0.44	0.435	0.433	0.429	0.427	0.421
333.15 K, 3200 kPa	0.611	0.532	0.482	0.445	0.44	0.438	0.435	0.432	0.427
353.15 K, 100 kPa	0.481	0.419	0.378	0.351	0.347	0.342	0.341	0.339	0.339
353.15 K, 800 kPa	0.487	0.425	0.384	0.356	0.352	0.347	0.346	0.343	0.344
353.15 K, 1600 kPa	0.493	0.431	0.39	0.361	0.357	0.352	0.351	0.349	0.349
353.15 K, 2400 kPa	0.499	0.437	0.396	0.367	0.363	0.357	0.356	0.354	0.354
353.15 K, 3200 kPa	0.505	0.444	0.402	0.372	0.368	0.363	0.361	0.359	0.359
373.15 K, 100 kPa	0.399	0.353	0.314	0.297	0.293	0.289	0.287	0.285	0.288
373.15 K, 800 kPa	0.405	0.359	0.319	0.302	0.298	0.293	0.291	0.289	0.293
373.15 K, 1600 kPa	0.412	0.365	0.326	0.307	0.303	0.299	0.296	0.294	0.298
373.15 K, 2400 kPa	0.418	0.372	0.332	0.313	0.309	0.304	0.302	0.3	0.303
373.15 K, 3200 kPa	0.424	0.378	0.338	0.319	–	–	–	–	–
